US20130330244A1, “COMPOSITIONS AND METHODS FOR TOPICAL NITRIC OXIDE GENERATION” (NIOXX LLC, priority 2011, published 2013)

Assays:
[1] = Preservation of color and viscosity of the composition over time; type: physicochemical; settings: used instead of ascorbic acid in the gel
Description: Gels were prepared according to the mixing procedure of Example 1, but with amounts of the ingredients to achieve molarities of those ingredients as shown below. Euxyl® PE9010 is a preservative having phenoxyethanol as the active ingredient (Schülke and Mayr, 30 Two Bridges Road Suite 225, Fairfield, N.J. 07004, USA).

[2] = cited from earlier work

| Compound | color and viscosity stability of composition [1] | pKa [2] |
| --- | --- | --- |
| CCOC1=C(O)C(=O)O[C@@H]1[C@@H](O)CO [3-O-ethyl ascorbic acid] | preserves the color and viscosity of the composition over long periods of time | – |
| O=NO [Nitrous acid] | – | 3.37 |
